From patent US20260200903A1, “PHARMACEUTICAL COMPOSITION FOR AMELIORATING MALIGNANT DISEASES” (KINKI UNIVERSITY, priority 2020, published 2026)

Tests used:
Raji cells = experiment: Tumor growth inhibition in mice transplanted with Raji cells; type: in vivo, NOD/ShiJic-scidJcl mice; details: oral 50 mg/kg daily, day 21, vs control group (P<0.01)
Description: Raji cells were transplanted into NOD/ShiJic-scidJcl mice, and the tumor growth inhibitory effect of oral administration of M9 and M14 was examined. As a result, a remarkable tumor growth inhibitory effect was observed.
Raji cells were transplanted into NOD/ShiJic-scidJcl mice, and the mice were orally administered M9 at 50 mg/kg and M14 at 50 mg/kg daily on day 0 when the average tumor volume exceeded 100 mm^3, and the tumor volume was measured on day 21.
The group that was only transplanted with Raji cells is called the control group, the group that was treated with M9 is called the M9-treated group, and the group that was treated with M14 is called the M14-treated group. Each group consisted of 5 animals.
(§1) Referring to the figure, the horizontal axis indicates drug treatment, and the vertical axis indicates tumor volume (percent of the control group).
White bars indicate the control group (labeled “Control”). Black bars indicate the M9 treatment group (labeled “50 mg/kg M9”) and vertical bars indicate the M14 treatment group (labeled “50 mg/kg M14”).

L363 cells = experiment: Tumor growth inhibition in mice transplanted with L363 cells; type: in vivo, NOD/ShiJic-scidJcl mice; details: oral 100 mg/kg daily, day 24, vs control group (P<0.01)
Description: L363 cells were transplanted into NOD/ShiJic-scidJcl mice, and the tumor growth inhibitory effect of oral administration of M9 was examined. As a result, a remarkable tumor growth inhibitory effect was observed.
L363 cells were transplanted into NOD/ShiJic-scidJcl mice, and M9 was orally administered to the mice at 100 mg/kg daily on day 0 when the average tumor volume exceeded 100 mm^3, and tumor volume was measured on day 24.
The group that was only implanted with L363 cells is called the target group and the group that was treated with M9 is called the M9-treated group. Each group consisted of 5 animals.
as §1
White bars indicate the control group (labeled “Control”). Black bars indicate the M9 treatment group (labeled “100 mg/kg M9”). Those with significant differences (P<0.01) from the control group are marked with an asterisk (*).

MIP-1α = MIP-1α secretion in L363 cells, Luminex; type: cell-based, human; details: L363 culture supernatant after 10 days; compounds at 0.005-50 μM; control 266 μg/mL
Description: The inhibitory effect of each compound on MIP-1α secretion was examined using Luminex in L363 cells.
(§2) As a control, compounds untreated L363 cells were seeded in 75 cm^2 flasks and incubated for 10 days at 37° C. and 5% CO2. L363 cells were seeded into 75 cm^2 flasks and pre-cultured for 4 h. After incubation, L363 cells were treated with 0.1 μM M7, 0.05 μM M9, 0.1 μM yk-7, 0.1 μM yk-8-3, 50 μM yk-8-1, 0.1 μM M11, 0.01 μM M12, 0.005 μM M14, 0.005 μM M15, 0.005 μM M16, 1 μM M18, and 1 μM M19 at final concentrations, and incubated for 10 days at 37° C. and 5% CO2. After 10 days of incubation, the culture supernatant was collected and the secretion of MIP-la, a bone destruction-related factor and a growth-promoting factor, was measured by Luminex. The human Magnetic Luminex Assay (R&D) was used for this measurement.

IgG [1] = experiment: IgG secretion in L363 cells, ELISA; type: cell-based, human; details: L363 culture supernatant after 10 days; compounds at 0.005-50 μM; control 2098 ng/mL
Description: The inhibitory effect of each compound on IgG secretion was examined by enzyme-linked immunosorbent assay (ELISA) using L363 cells.
as §2, with “and IgG” for “and the”, “secretion” for “secretion of MIP-la, a bone destruction-related factor and a growth-promoting factor,”, “by ELISA. This measurement was performed using a” for “by Luminex. The”, “human anti-IgG antibody ELISA kit (Funakoshi).” for “human Magnetic Luminex Assay (R&D) was used for this measurement.”

IgG [2] = experiment: IgG secretion in KMS-28BM cells, ELISA; type: cell-based, human; details: KMS-28BM culture supernatant after 10 days; compounds at 0.005-50 μM; control 1326 ng/mL
Description: The inhibitory effect of each compound on IgG secretion was examined by enzyme-linked immunosorbent assay (ELISA) using KMS-28BM cells.
As a control, compounds untreated KMS-28BM cells were seeded in 75 cm^2 flasks and incubated for 10 days at 37° C. and 5% CO2. KMS-28BM cells were seeded into 75 cm^2 flasks and pre-cultured for 4 h. After incubation, KMS-28BM cells were treated with […], 0.05 μM M9, 0.1 μM yk-7, 0.1 μM yk-8-3, 50 μM yk-8-1, 0.5 μM M11, […], 0.005 μM M14, 0.005 μM M15, 0.005 μM M16, 0.5 μM M18, and 0.5 μM M19 at final concentrations, and incubated for 10 days at 37° C. and 5% CO2. After 10 days of incubation, the culture supernatant was collected and IgG secretion was measured by ELISA. This measurement was performed using a human anti-IgG antibody ELISA kit (Funakoshi).

IL-6 = IL-6 secretion in KMS-28BM cells, Luminex; type: cell-based, human; details: KMS-28BM culture supernatant after 10 days; compounds at 0.005-50 μM; control 143 μg/mL
Description: The inhibitory effect of each compound on IL-6 secretion was examined using Luminex in KMS-28BM cells.
As a control, compounds untreated KMS-28BM cells were seeded in 75 cm^2 flasks and incubated for 10 days at 37° C. and 5% CO2. KMS-28BM cells were seeded into 75 cm^2 flasks and pre-cultured for 4 h. After incubation, KMS-28BM cells were treated with […], 0.05 μM M9, 0.1 μM yk-7, 0.1 μM yk-8-3, 50 μM yk-8-1, 0.5 μM M11, […], 0.005 μM M14, 0.005 μM M15, 0.005 μM M16, 0.5 μM M18, and 0.5 μM M19 at final concentrations, and incubated for 10 days at 37° C. and 5% CO2. After 10 days of incubation, the culture supernatant was collected and the secretion of IL-6, a bone destruction-related factor and a growth-promoting factor, was measured by Luminex. The human Magnetic Luminex Assay (R&D) was used for this measurement.

Question: `CCC(=O)OC[C@H]1O[C@@H](c2c(O)cc3oc4cc(O)c(O)cc4c(=O)c3c2O)[C@H](OC(=O)CC)[C@@H](OC(=O)CC)[C@@H]1OC(=O)CC` [Compound M9, 2′,3′,4′,6′-tetra-O-propionylmangiferin] was tested. Which “tumor growth (tumor volume, percent of the control group)” value (Raji cells) did it give?
Answer: significant inhibition of tumor growth

Question: And the “tumor growth (tumor volume, percent of the control group)” value (L363 cells)?
Answer: significant inhibition of tumor growth

Question: How did the “tumor growth (tumor volume, percent of the control group)” value (Raji cells) turn out when `CCCC(=O)OC[C@H]1O[C@@H](c2c(O)cc3oc4cc(O)c(O)cc4c(=O)c3c2O)[C@H](OC(=O)CCC)[C@@H](OC(=O)CCC)[C@@H]1OC(=O)CCC` [Compound M14, 2′,3′,4′,6′-tetra-O-butyrylmangiferin] was run?
Answer: significant inhibition of tumor growth

Question: Which MIP-1α secretion (MIP-1α) does the source give for `CCCCC(=O)OC[C@H]1O[C@@H](c2c(OC(=O)CCCC)cc3oc4cc(OC(=O)CCCC)c(OC(=O)CCCC)cc4c(=O)c3c2OC(=O)CCCC)[C@H](OC(=O)CCCC)[C@@H](OC(=O)CCCC)[C@@H]1OC(=O)CCCC` [yk-8-1, 1,3,2′,3′,4′,6,6′,7-octa-O-valerylmangiferin] here?
Answer: 179 µg/mL

Question: What about the IgG secretion (IgG [1]) of the same compound?
Answer: 1474 ng/mL

Question: What about the IgG secretion (IgG [2]) of the same compound?
Answer: 1117 ng/mL

Question: And the IL-6 secretion (IL-6)?
Answer: 84 µg/mL

Question: Which MIP-1α secretion (MIP-1α) does the source give for `CCCC(=O)OC[C@H]1O[C@@H](c2c(OC(=O)CCC)cc3oc4cc(OC(=O)CCC)c(OC(=O)CCC)cc4c(=O)c3c2OC(=O)CCC)[C@H](OC(=O)CCC)[C@@H](OC(=O)CCC)[C@@H]1OC(=O)CCC` [Compound M11, 1,3,2′,3′,4′,6,6′,7-octa-O-butyrylmangiferin] here?
Answer: 6 µg/mL

Question: What about the IgG secretion (IgG [1]) of the same compound?
Answer: 44 ng/mL

Question: What about the IgG secretion (IgG [2]) of the same compound?
Answer: 61 ng/mL

Question: What about the IL-6 secretion (IL-6) of the same compound?
Answer: 12 µg/mL
